Patent US20060089499A1, “Pyrazolopyrimidines and the use thereof for controlling harmful organisms” (priority 2002, published 2006)

System: Venturia inaequalis
Assay: Venturia test (apple)/protective
Type: in vivo
Conditions: topical, 240 h, protective, application rate 100 g/ha, evaluation 10 days after inoculation, read-out: Efficacy in %
Protocol: Venturia Test (Apple)/Protective [table] To produce a suitable preparation of active compound, 1 part by weight of active compound is mixed with the stated amounts of solvent and emulsifier, and the concentrate is diluted with water to the desired concentration. To test for protective activity, young plants are sprayed with the preparation of active compound at the stated application rate. After the spray coating has dried on, the plants are inoculated with an aqueous conidia suspension of the apple scab pathogen Venturia inaequalis and then remain in an incubation cabin at about 20° C. and 100% relative atmospheric humidity for 1 day. The plants are then placed in a greenhouse at about 21° C. and a relative atmospheric humidity of about 90%.

SMILES	pest or weed control at 100 g/ha [%]
CC1CCN(c2c(-c3c(F)cccc3Cl)c(Cl)nc3c(C#N)cnn23)CC1 [drawing 92]	97
N#Cc1cnn2c(NCC3CC3)c(-c3c(F)cccc3Cl)c(Cl)nc12 [drawing 93]	100
C=C(C)CN(CC)c1c(-c2c(F)cc(F)cc2F)c(Cl)nc2c(C#N)cnn12 [drawing 94]	100
C[C@H](Nc1c(-c2c(F)cc(F)cc2F)c(Cl)nc2c(C#N)cnn12)C(F)(F)F [drawing 95]	100
C[C@H](Nc1c(-c2c(F)cc(F)cc2F)c(Cl)nc2c(Cl)cnn12)C(F)(F)F [drawing 96]	98
Fc1cc(F)c(-c2c(Cl)nc3c(Cl)cnn3c2N2CCC(F)(F)CC2)c(F)c1 [drawing 97]	100
CC(C)[C@@H](C)Nc1c(-c2c(F)cc(F)cc2F)c(Cl)nc2c(C#N)cnn12 [drawing 98]	100
CCC(C)Nc1c(-c2c(F)cc(F)cc2F)c(Cl)nc2c(C#N)cnn12 (stereo not drawn) [drawing 99]	100
CC(C)Nc1c(-c2c(F)cc(F)cc2F)c(Cl)nc2c(C#N)cnn12 [drawing 100]	98
CC(C)CN(C)c1c(-c2c(F)cc(F)cc2F)c(Cl)nc2c(C#N)cnn12 [drawing 101]	100
C=C(C)CN(C)c1c(-c2c(F)cc(F)cc2F)c(Cl)nc2c(C#N)cnn12 [drawing 102]	100

System: Botrytis cinerea
Assay: Botrytis test (bean)/protective
Type: in vivo
Conditions: topical, 48 h, protective, application rate 500 g/ha, evaluation 2 days after inoculation, read-out: Efficacy in %
Protocol: Botrytis Test (Bean)/Protective
To produce a suitable preparation of active compound, 1 part by weight of active compound is mixed with the stated amounts of solvent and emulsifier, and the concentrate is diluted with water to the desired concentration. To test for protective activity, young plants are sprayed with the preparation of active compound at the stated application rate. After the spray coating has dried on, 2 small pieces of agar colonized by Botrytis cinerea are placed onto each leaf. The inoculated plants are placed in a dark chamber at about 20° C. and 100% relative atmospheric humidity.
2 days after the inoculation, the size of the infected areas on the leaves is evaluated. 0% means an efficacy which corresponds to that of the control, whereas an efficacy of 100% means that no infection is observed.

SMILES	pest or weed control at 500 g/ha [%]
N#Cc1cnn2c(N3CCCCC3)c(-c3c(F)cccc3Cl)c(Cl)nc12 [drawing 111]	93
CC1CCN(c2c(-c3c(F)cccc3Cl)c(Cl)nc3c(C#N)cnn23)CC1 [drawing 112]	96
N#Cc1cnn2c(NCC3CC3)c(-c3c(F)cccc3Cl)c(Cl)nc12 [drawing 113]	99
C=C(C)CN(CC)c1c(-c2c(F)cc(F)cc2F)c(Cl)nc2c(C#N)cnn12 [drawing 114]	100
C[C@H](Nc1c(-c2c(F)cc(F)cc2F)c(Cl)nc2c(C#N)cnn12)C(F)(F)F [drawing 115]	99
C[C@H](Nc1c(-c2c(F)cc(F)cc2F)c(Cl)nc2c(Cl)cnn12)C(F)(F)F [drawing 116]	100
Fc1cc(F)c(-c2c(Cl)nc3c(Cl)cnn3c2N2CCC(F)(F)CC2)c(F)c1 [drawing 117]	95
CC(C)[C@@H](C)Nc1c(-c2c(F)cc(F)cc2F)c(Cl)nc2c(C#N)cnn12 [drawing 118]	96
CCC(C)Nc1c(-c2c(F)cc(F)cc2F)c(Cl)nc2c(C#N)cnn12 (stereo not drawn) [drawing 119]	97
CC(C)Nc1c(-c2c(F)cc(F)cc2F)c(Cl)nc2c(C#N)cnn12 [drawing 120]	93
CC(C)CN(C)c1c(-c2c(F)cc(F)cc2F)c(Cl)nc2c(C#N)cnn12 [drawing 121]	100
C=C(C)CN(C)c1c(-c2c(F)cc(F)cc2F)c(Cl)nc2c(C#N)cnn12 [drawing 122]	100
CC(Nc1c(-c2ccc(F)cc2Cl)c(Cl)nc2c(C#N)cnn12)C(F)(F)F (stereo not drawn) [drawing 123]	99
C[C@H](Nc1c(-c2ccc(F)cc2Cl)c(Cl)nc2c(C#N)cnn12)C(F)(F)F [drawing 124]	100
CC(C)CN(C)c1c(-c2ccccc2Cl)c(Cl)nc2c(C#N)cnn12 [drawing 125]	100
CC1CCN(c2c(-c3ccccc3Cl)c(Cl)nc3c(C#N)cnn23)CC1 [drawing 126]	95
N#Cc1cnn2c(N3CCC(F)CC3)c(-c3c(F)cccc3Cl)c(Cl)nc12 [drawing 127]	94
CC(C)CN(C)c1c(-c2c(F)cccc2Cl)c(Cl)nc2c(C#N)cnn12 [drawing 128]	99
C=C(C)CN(CC)c1c(-c2c(F)cccc2Cl)c(Cl)nc2c(C#N)cnn12 [drawing 129]	100
C[C@H](Nc1c(-c2c(F)cccc2Cl)c(Cl)nc2c(C#N)cnn12)C(F)(F)F [drawing 130]	100

System: not listed separately
Assay: physchem
Conditions: log P

chromatographic logP	SMILES
3.88	C[C@H](Nc1c(-c2ccc(F)cc2Cl)c(Cl)nc2c(C#N)cnn12)C(F)(F)F (single isomer, unassigned) [Example 1]
3.78	CC(C)C(C)Nc1c(-c2c(F)cccc2Cl)cnc2c(C#N)cnn12 (stereo not drawn) [Example 4, 6-(2-chloro-6-fluorophenyl)-7-[(1,2-dimethylpropyl)amino)pyrazolo[1,5-a]pyrimidine-3-carbonitrile]
4.53	CC(C)C(C)Nc1c(-c2ccc(F)cc2Cl)cnc2c(Cl)cnn12 (stereo not drawn) [Example 5, N-[3-chloro-6-(2-chloro-4-fluorophenyl)pyrazolo[1,5-a]pyrimidin-7-yl]-N-(1,2-dimethylpropyl)amine]
4.43	CC(Nc1c(-c2ccc(F)cc2Cl)c(Cl)nc2c(C=O)cnn12)C(C)(C)C (stereo not drawn) [Example 401, 3-formyl-5-chloro-6-(2-chloro-4-fluorophenyl)-7-(1,2,2-trimethylpropylamino)pyrazolo[1,5a]pyrimidine]
5.48	CO/N=C\c1cnn2c(NC(C)C(C)(C)C)c(-c3ccc(F)cc3Cl)c(Cl)nc12 (stereo not drawn) [Example 402, 3-methoximino-5-chloro-6-(2-chloro-4-fluorophenyl)-7-(1,2,2-trimethylpropylamino)pyrazolo[1,5a]pyrimidine]
3.48	N#Cc1cnn2c(Cl)c(-c3ccc(F)cc3Cl)c(Cl)nc12 [Example 441, 3-cyano-5,7-dichloro-6-(2-chloro-4-fluorophenyl)pyrazolo[1,5-a]pyrimidine]
3.97	Fc1cc(F)c(-c2c(Cl)nc3c(Cl)cnn3c2Cl)c(F)c1 [Example 442, 3,5,7-trichloro-6-(2,4,6-trifluorophenyl)pyrazolo[1,5-a]pyrimidine]
3.56	Fc1ccc(-c2cnc3c(Cl)cnn3c2Cl)c(Cl)c1 [Example 443, 3,7-dichloro-6-(2-chloro-4-fluorophenyl)pyrazolo[1,5-a]pyrimidine]

SMILES	chromatographic logP
C[C@H](Nc1c(-c2c(F)cc(F)cc2F)c(Cl)nc2c(Cl)cnn12)C(F)(F)F [Example 3, N-[3,5-dichloro-6-(2,4,6-trifluorophenyl)pyrazolo[1,5-a]pyrimidin-7-yl]-N-[(1S)-2,2,2-trifluoro-1-methylethyl]amine]	4.43

Same assay, conditions: logP

chromatographic logP	SMILES
4.43	CC(Nc1c(-c2ccc(F)cc2Cl)c(Cl)nc2c(C=O)cnn12)C(C)(C)C (stereo not drawn) [Example 401, 3-formyl-5-chloro-6-(2-chloro-4-fluorophenyl)-7-(1,2,2-trimethylpropylamino)pyrazolo[1,5a]pyrimidine]
5.48	CO/N=C\c1cnn2c(NC(C)C(C)(C)C)c(-c3ccc(F)cc3Cl)c(Cl)nc12 (stereo not drawn) [Example 402, 3-methoximino-5-chloro-6-(2-chloro-4-fluorophenyl)-7-(1,2,2-trimethylpropylamino)pyrazolo[1,5a]pyrimidine]
4.6	C=C(C)CN(CC)c1c(-c2c(F)cc(F)cc2F)c(Cl)nc2c(C#N)cnn12 [compound 6]
3.73	C[C@H](Nc1c(-c2c(F)cccc2Cl)c(Cl)nc2c(C#N)cnn12)C(F)(F)F [compound 12]
4.68	C=C(C)CN(CC)c1c(-c2c(F)cccc2Cl)c(Cl)nc2c(C#N)cnn12 [compound 13]
3.26	N#Cc1cnn2c(N3CCOCC3)c(-c3c(F)cccc3Cl)c(Cl)nc12 [compound 14]
4.32	N#Cc1cnn2c(N3CCCCC3)c(-c3c(F)cccc3Cl)c(Cl)nc12 [compound 21]
4.77	CC1CCN(c2c(-c3c(F)cccc3Cl)c(Cl)nc3c(C#N)cnn23)CC1 [compound 28]
3.74	N#Cc1cnn2c(NCC3CC3)c(-c3c(F)cccc3Cl)c(Cl)nc12 [compound 29]
3.82	N#Cc1cnn2c(N3CCC(F)CC3)c(-c3c(F)cccc3Cl)c(Cl)nc12 [compound 34]
4.51	CC(C)CN(C)c1c(-c2c(F)cccc2Cl)c(Cl)nc2c(C#N)cnn12 [compound 46]
3.89	CCC(C)Nc1c(-c2c(F)cc(F)cc2F)c(Cl)nc2c(C#N)cnn12 (stereo not drawn) [compound 50]
3.54	CC(C)Nc1c(-c2c(F)cc(F)cc2F)c(Cl)nc2c(C#N)cnn12 [compound 52]
4.78	CC1CCN(c2c(-c3ccccc3Cl)c(Cl)nc3c(C#N)cnn23)CC1 [compound 95]
4.37	CC(C)CN(C)c1c(-c2c(F)cc(F)cc2F)c(Cl)nc2c(C#N)cnn12 [compound 108]
4.24	C=C(C)CN(C)c1c(-c2c(F)cc(F)cc2F)c(Cl)nc2c(C#N)cnn12 [compound 110]
4.51	CC(C)CN(C)c1c(-c2ccccc2Cl)c(Cl)nc2c(C#N)cnn12 [compound 138]
3.87	CC(C)CNc1c(-c2ccc(F)cc2F)c(Cl)nc2c(C#N)cnn12 [compound 148]
3.81	N#Cc1cnn2c(N3CCC(F)(F)CC3)c(-c3c(F)cc(F)cc3F)c(Cl)nc12 [compound 230]
4.61	Fc1cc(F)c(-c2c(Cl)nc3c(Cl)cnn3c2N2CCC(F)(F)CC2)c(F)c1 [compound 231]

SMILES	chromatographic logP
C[C@H](Nc1c(-c2c(F)cc(F)cc2F)c(Cl)nc2c(C#N)cnn12)C(F)(F)F [compound 7]	3.69
N#Cc1cnn2c(NCC3CC3)c(-c3c(F)cc(F)cc3F)c(Cl)nc12 [compound 54]	3.63
C[C@H](Nc1c(-c2ccccc2F)c(Cl)nc2c(C#N)cnn12)C(F)(F)F [compound 74]	3.49
